This passage reports IC50 results from patent US7419984B2, “Pyrimidines and uses thereof” (Cell Therapeutics, Inc., priority 2002, dated 2008).

pIC50: −log10 of the molar value.

For this experiment, the target named is T1, human LPAAT-β (Homo sapiens, UniProt O15120).
T1 construct: the full-length human LPAAT-β cDNA was amplified by PCR; poly-histidine tag (N); made in house; host or cells: Sf9 insect cells (baculovirus, pFastBac HTc); the membrane fraction was used as the enzyme
T1 sequence (O15120 24-278): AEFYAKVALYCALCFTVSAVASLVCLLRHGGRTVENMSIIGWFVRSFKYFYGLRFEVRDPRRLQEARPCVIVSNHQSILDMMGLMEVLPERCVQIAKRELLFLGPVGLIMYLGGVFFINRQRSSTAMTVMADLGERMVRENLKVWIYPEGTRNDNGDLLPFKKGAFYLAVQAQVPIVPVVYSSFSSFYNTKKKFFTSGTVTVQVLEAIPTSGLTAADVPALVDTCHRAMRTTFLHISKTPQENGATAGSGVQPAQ
Nature of the experiment: LPAAT-β cell-free assay. The note with it: Sf9 cell membrane overexpressing recombinant LPAAT-β. The experiment is classed as biochemical. Put shortly:
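Membranes from Sf9 cells expressing His/myc-tagged full-length human LPAAT-β were used in HEPES-saline pH 7.5 with 1 mg/ml BSA. Compound was added from a 200 μM DMSO stock, and reaction with 18:1-CoA and sn-1-18:1 lysoPA (1 mM stocks) ran 25 min at RT. Released CoA was detected with DTNB at 405 nm; a radiometric variant used 200 μM [14C]18:1-CoA and 200 μM lysoPA.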

In general, pIC50 refers to the negative decadic logarithm of the IC50, by convention in mol/L. Consider `CC(=O)c1ccc(Nc2cc(-c3cccc(Cl)c3)nc(N)n2)cc1` [Example 139, 1-{4-[2-Amino-6-(3-chloro-phenyl)-pyrimidin-4-ylamino]-phenyl}-ethanone], for which the pIC50 is 6.47.

Take `CCOc1ccc(Cl)cc1-c1cc(Nc2ccc(CCCC(=O)O)cc2)nc(N)n1` [Example 95, 4-{4-[2-Amino-6-(5-chloro-2-ethoxy-phenyl)-pyrimidin4-ylamino]-phenyl}-butyric acid]: the pIC50 was 6.51. Turning to `Nc1nc(Nc2ccc(Cl)cc2)cc(-c2cc(Br)ccc2OCc2ccccc2)n1` [Example 146, 6-(2-Benzyloxy-5-bromo-phenyl)-N*4*-(4-chloro-phenyl)-pyrimidine-2,4-diamine], the negative logarithm of the IC50 (pIC50) was 8.52. In the case of `Cc1nc(Nc2ccc3cn[nH]c3c2)cc(-c2cc(Cl)ccc2C)n1` [Example 43, [6-(5-Chloro-2-methyl-phenyl)-2-methyl-pyrimidin-4-yl]-(1H-indazol-6-yl)-amine] it was 7.77; in that of `Nc1nc(Nc2ccc(Cl)cc2)cc(-c2ccccc2)n1` [Example 106, N*4*-(4-Chloro-phenyl)-6-phenyl-pyrimidine-2,4-diamine], 5.96; in that of `Cc1ccc(Br)cc1-c1cc(Nc2ccc(N=[N+]=[N-])cc2)nc(N)n1` [Example 81, [6-(5-Bromo-2-methyl-phenyl)-(4-azido-phenyl)-pyrimidine]-2,4-diamine], 6.72.

In the case of `Nc1nc(Nc2ccc(Cl)cc2)cc(-c2cccc(Cl)c2Cl)n1` [Example 118, 6-(2,3-Dichloro-phenyl)-N*4*-(4-chloro-phenyl)-pyrimidine-2,4-diamine], the negative-log IC50 (pIC50) is 6.15. For `Cc1ccc(Cl)cc1-c1cc(Nc2ccc(C(O)C(F)(F)F)cc2)nc(N)n1` (centres unmarked) [Example 103, 1-{4-[2-Amino-6-(5-chloro-2-methyl-phenyl)-pyrimidin4-ylamino]-phenyl}-2,2,2-trifluoro-ethanol] the value was 7.27.

Consider `CCOc1ccc(Br)cc1-c1cc(Nc2ccc(C(C)O)cc2)nc(N)n1` (centres unmarked) [Example 134], for which the negative-log IC50 (pIC50) is 6.96.

Turning to `COc1ccc(COc2ccc(Br)cc2-c2cc(Nc3ccc(Cl)cc3)nc(N)n2)cc1` [Example 185, 6-[5-Bromo-2-(4-methoxy-benzyloxy)-phenyl]-N*4*-(4-chloro-phenyl)-pyrimidine-2,4-diamine], the pIC50 is 8.40.

On to `CNC(=O)c1cc(Nc2cc(-c3cc(Br)ccc3OC)nc(N)n2)ccc1Cl` [Example 184, 5-[2-Amino-6-(5-bromo-2-methoxy-phenyl)-pyrimidin4-ylamino]-2-chloro-N-methyl-benzamide], for which the negative-log IC50 (pIC50) is 6.70. `COC(=O)c1ccc(Nc2cc(-c3cc(Cl)ccc3OC)nc(N)n2)cc1` [Example 9, 4-[2-Amino-6-(5-chloro-2-methoxy-phenyl)-pyrimidin-4-ylamino]-benzoic acid methyl ester]: the pIC50 was 6.22. In the case of `COc1ccc(Cl)cc1-c1cc(Nc2ccc(CCO)cc2)nc(N)n1` [Example 50, 2-{4-[2-Amino-6-(5-chloro-2-methoxy-phenyl)-pyrimidin-4-ylamino]-phenyl}-ethanol] it was 7.34.

In the case of `Nc1nc(Nc2ccc(Cl)cc2)cc(-c2cc(Br)ccc2OCCc2ccccc2)n1` [Example 166, 6-(5-Bromo-2-phenethyloxy-phenyl)-N*4*-(4-chloro-phenyl)-pyrimidine-2,4-diamine], the pIC50 is 8.30. For `CCOc1ccc(Cl)cc1-c1cc(Nc2ccc(CCO)cc2)nc(N)n1` [Example 47, 2-{4-[2-Amino-6-(5-chloro-2-ethoxy-phenyl)-pyrimidin4-ylamino]-phenyl}-ethanol] the value was 7.55; for `COc1ccc(Cl)cc1-c1cc(Nc2ccc(C)cc2)nc(N)n1` [Example 1, 6-(5-Chloro-2-methoxy-phenyl)-N*4*-p-tolyl-pyrimidine-2,4-diamine], 6.92. For `COc1ccc(Nc2cc(-c3cc(Cl)ccc3Cl)nc(N)n2)cc1` [Example 16, 6-(2,5-Dichloro-phenyl)-N*4*-(4-methoxy-phenyl)-pyrimidine-2,4-diamine] the value was 6.92.
